Source: patent US12377071B2, “Methods of treating conditions related to the S1P1 receptor” (Arena Pharmaceuticals, Inc., priority 2015, dated 2025)
“Also recorded” adds a separate entry of the source. Counter-ions that a name gives are not always drawn.

How the values were obtained:
[1] = clinical trials; cited from earlier work
[2] = test system: healthy adult subjects; experiment: Multiple ascending dose study: safety assessments and adverse events
Description: (§1) The following safety assessments were conducted: physical examinations with ophthalmoscopy, clinical laboratory tests (serum chemistry, coagulation, and urinalysis), vital signs, continuous telemetry (12 lead ECG), safety ECGs, pulmonary function testing (PFT), serum protein electrophoresis (SPEP) and serum immunoelectrophoresis (IEP), and adverse event reporting.

[3] = test system: healthy adult subjects; experiment: Multiple ascending dose study: heart rate, safety population; type: in vivo, human; conditions: Day 1 to Day 28
Description: (§2) A randomized, double-blind, placebo-controlled, sequential, ascending, multiple dose study to assess the safety, tolerability, and pharmacokinetics of the L-arginine salt of Compound 1 administered to healthy adult subjects was conducted. This study was designed to evaluate the safety, tolerability, pharmacokinetics, and pharmacodynamics of the L-arginine salt of Compound 1.
(§3) Cohort 1 was dosed with 0.7 mg (by administering two 0.35 mg formulations) for 21 days. Cohort 2 was dosed with 1.35 mg (by administering both a 0.35 mg formulation and a 1 mg formulation) for 21 days. Cohort 3 was dosed with 2.0 mg for 21 days. Cohort 4 was dosed with 0.35 mg for 7 days and then with 2.0 mg for 14 days. Cohort 5 was dosed with 0.5 for 7 days and then with 3.0 mg (by administering both a 1 mg formulation and a 2 mg formulation) for 14 days.
as §1

[4] = test system: healthy adult subjects; experiment: Multiple ascending dose study: QTc, safety population; type: in vivo, human; conditions: Day 1 to Day 23
Description: as §2, §3, §1

[5] = test system: healthy adult subjects; experiment: Multiple ascending dose study: diastolic BP, safety population; type: in vivo, human; conditions: Day 1 to Day 28
Description: as §2, §3, §1

[6] = test system: healthy adult subjects; experiment: Multiple ascending dose study: systolic BP, safety population; type: in vivo, human; conditions: Day 1 to Day 28
Description: as §2, §3, §1

[7] = test system: lymphocytes; experiment: Multiple ascending dose study: lymphocyte counts, safety population; type: in vivo, human; conditions: for Lymphocytes, On Treatment Mean / Lymphocytes, Percent Change from Baseline, Mean / Lymphocytes, Percent Change from Baseline, Median / Lymphocytes, Percent Change from Baseline, Min, Max: day 21
Description: as §2, §3

[8] = 0.35 mg for 7 days then 2.0 mg for 14 days
[9] = 0.5 mg for 7 days then 3.0 mg for 14 days

Compound: CCCCCCCCc1ccc(CCC(N)(CO)CO)cc1 [FTY720, fingolimod]
- Adverse event [1]: transient asymptomatic bradycardia

Compound: O=C(O)C[C@H]1CCc2c1[nH]c1ccc(OCc3ccc(C4CCCC4)c(C(F)(F)F)c3)cc21 [L-arginine salt of Compound 1]
- Subjects with mildly abnormal reproducible (NCS) pulmonary function test findings (FEV1 below 80%, FVC) post-dose ([2]; 1.35 mg dose): One
- Subjects with mildly abnormal non-clinically significant post-treatment liver function tests (elevated ALT & AST <2× ULN) ([2]; 2mg group): 1 subject
- Subjects with new 1st degree atrioventricular block ([2]; 2mg group): 1 subject
- Subjects with new 1st degree atrioventricular block ([2]; 0.5, 3 mg group): 1 subject
- Subjects with mildly abnormal non-clinically significant post-treatment liver function tests (elevated ALT & AST <2× ULN) ([2]; 0.5 escalating to 3 mg group): 1 subject
- Discontinuation due to an adverse event ([2]; multiple dose): No subjects were discontinued due to an adverse event
- Most common adverse events ([2]; multiple dose): contact dermatitis and leukopenia, followed by constipation, diarrhea, nausea, and abdominal pain
- Ophthalmoscopy findings ([2]; multiple dose): No clinically significant change from baseline
- Severity of adverse events ([2]; multiple dose): majority of adverse events were mild
- Vital signs, ECGs, PFTs, ophthalmoscopy, clinical laboratory tests ([2]; multiple dose): no other clinically significant safety issues
- SAEs or deaths ([2]; multiple dose, all dose levels): No SAEs or deaths
- Second degree heart block ([2]; multiple dose, all dose levels): No second degree heart block
- Tolerability ([2]; multiple dose, all dose levels (0.7 to 3.0 mg, 21 days)): tolerated at all dose levels; also recorded: well tolerated at all doses tested
- Minimum Value for Post-dose Heart Rate, Change from Baseline, Mean [3, 8]: −10.60 BPM
- Minimum Value for Post-dose Heart Rate, Change from Baseline, Median [3, 8]: −7.00 BPM
- Minimum Value for Post-dose Heart Rate, Change from Baseline, Min, Max [3, 8]: −35.00 to 3.00 BPM
- Minimum Value for Post-dose Heart Rate, On Treatment Mean [3, 8]: 52.00 BPM
- Minimum Value for Post-dose Heart Rate, Change from Baseline, Mean [3, 9]: −7.30 BPM
- Minimum Value for Post-dose Heart Rate, Change from Baseline, Median [3, 9]: −6.50 BPM
- Minimum Value for Post-dose Heart Rate, Change from Baseline, Min, Max [3, 9]: −14.00 to −2.00 BPM
- Minimum Value for Post-dose Heart Rate, On Treatment Mean [3, 9]: 53.80 BPM
- Minimum Value for Post-dose Heart Rate, Change from Baseline, Mean ([3]; 0.7 mg for 21 days): −5.50 BPM
- Minimum Value for Post-dose Heart Rate, Change from Baseline, Median ([3]; 0.7 mg for 21 days): −5.00 BPM
- Minimum Value for Post-dose Heart Rate, Change from Baseline, Min, Max ([3]; 0.7 mg for 21 days): −12.00 to −1.00 BPM
- Minimum Value for Post-dose Heart Rate, On Treatment Mean ([3]; 0.7 mg for 21 days): 54.20 BPM
- Minimum Value for Post-dose Heart Rate, Change from Baseline, Mean ([3]; 1.35 mg for 21 days): −6.20 BPM
- Minimum Value for Post-dose Heart Rate, Change from Baseline, Median ([3]; 1.35 mg for 21 days): −5.00 BPM
- Minimum Value for Post-dose Heart Rate, Change from Baseline, Min, Max ([3]; 1.35 mg for 21 days): −18.00 to 3.00 BPM
- Minimum Value for Post-dose Heart Rate, On Treatment Mean ([3]; 1.35 mg for 21 days): 54.40 BPM
- Minimum Value for Post-dose Heart Rate, Change from Baseline, Mean ([3]; 2.0 mg for 21 days): −8.30 BPM
- Minimum Value for Post-dose Heart Rate, Change from Baseline, Median ([3]; 2.0 mg for 21 days): −7.50 BPM
- Minimum Value for Post-dose Heart Rate, Change from Baseline, Min, Max ([3]; 2.0 mg for 21 days): −16.00 to −3.00 BPM
- Minimum Value for Post-dose Heart Rate, On Treatment Mean ([3]; 2.0 mg for 21 days): 51.00 BPM
- Maximum Value for Post-dose QTc, Change from Baseline, Mean [4, 8]: −0.10 MS
- Maximum Value for Post-dose QTc, Change from Baseline, Median [4, 8]: 0.50 MS
- Maximum Value for Post-dose QTc, Change from Baseline, Min, Max [4, 8]: −19.00 to 17.00 MS
- Maximum Value for Post-dose QTc, On Treatment Mean [4, 8]: 411.10 MS
- Maximum Value for Post-dose QTc, Change from Baseline, Mean [4, 9]: 5.60 MS
- Maximum Value for Post-dose QTc, Change from Baseline, Median [4, 9]: 5.00 MS
- Maximum Value for Post-dose QTc, Change from Baseline, Min, Max [4, 9]: −5.00 to 15.00 MS
- Maximum Value for Post-dose QTc, On Treatment Mean [4, 9]: 425.10 MS
- Maximum Value for Post-dose QTc, Change from Baseline, Mean ([4]; 0.7 mg for 21 days): 3.60 MS
- Maximum Value for Post-dose QTc, Change from Baseline, Median ([4]; 0.7 mg for 21 days): 3.50 MS
- Maximum Value for Post-dose QTc, Change from Baseline, Min, Max ([4]; 0.7 mg for 21 days): −8.00 to 16.00 MS
- Maximum Value for Post-dose QTc, On Treatment Mean ([4]; 0.7 mg for 21 days): 418.40 MS
- Maximum Value for Post-dose QTc, Change from Baseline, Mean ([4]; 1.35 mg for 21 days): 8.20 MS
- Maximum Value for Post-dose QTc, Change from Baseline, Median ([4]; 1.35 mg for 21 days): 6.00 MS
- Maximum Value for Post-dose QTc, Change from Baseline, Min, Max ([4]; 1.35 mg for 21 days): −5.00 to 25.00 MS
- Maximum Value for Post-dose QTc, On Treatment Mean ([4]; 1.35 mg for 21 days): 423.60 MS
- Maximum Value for Post-dose QTc, Change from Baseline, Mean ([4]; 2.0 mg for 21 days): 4.00 MS
- Maximum Value for Post-dose QTc, Change from Baseline, Median ([4]; 2.0 mg for 21 days): 4.50 MS
- Maximum Value for Post-dose QTc, Change from Baseline, Min, Max ([4]; 2.0 mg for 21 days): −8.00 to 13.00 MS
- Maximum Value for Post-dose QTc, On Treatment Mean ([4]; 2.0 mg for 21 days): 421.20 MS
- Minimum Value for Post-dose Diastolic BP, Change from Baseline, Mean [5, 8]: −7.90 mmHg
- Minimum Value for Post-dose Diastolic BP, Change from Baseline, Median [5, 8]: −6.00 mmHg
- Minimum Value for Post-dose Diastolic BP, Change from Baseline, Min, Max [5, 8]: −19.00 to −1.00 mmHg
- Minimum Value for Post-dose Diastolic BP, On Treatment Mean [5, 8]: 50.80 mmHg
- Minimum Value for Post-dose Diastolic BP, Change from Baseline, Mean [5, 9]: −6.30 mmHg
- Minimum Value for Post-dose Diastolic BP, Change from Baseline, Median [5, 9]: −7.00 mmHg
- Minimum Value for Post-dose Diastolic BP, Change from Baseline, Min, Max [5, 9]: −13.00 to 3.00 mmHg
- Minimum Value for Post-dose Diastolic BP, On Treatment Mean [5, 9]: 50.20 mmHg
- Minimum Value for Post-dose Diastolic BP, Change from Baseline, Mean ([5]; 0.7 mg for 21 days): −6.10 mmHg
- Minimum Value for Post-dose Diastolic BP, Change from Baseline, Median ([5]; 0.7 mg for 21 days): −6.00 mmHg
- Minimum Value for Post-dose Diastolic BP, Change from Baseline, Min, Max ([5]; 0.7 mg for 21 days): −16.00 to 2.00 mmHg
- Minimum Value for Post-dose Diastolic BP, On Treatment Mean ([5]; 0.7 mg for 21 days): 56.00 mmHg
- Minimum Value for Post-dose Diastolic BP, Change from Baseline, Mean ([5]; 1.35 mg for 21 days): −5.20 mmHg
- Minimum Value for Post-dose Diastolic BP, Change from Baseline, Median ([5]; 1.35 mg for 21 days): −7.50 mmHg
- Minimum Value for Post-dose Diastolic BP, Change from Baseline, Min, Max ([5]; 1.35 mg for 21 days): −11.00 to 6.00 mmHg
- Minimum Value for Post-dose Diastolic BP, On Treatment Mean ([5]; 1.35 mg for 21 days): 53.70 mmHg
- Minimum Value for Post-dose Diastolic BP, Change from Baseline, Mean ([5]; 2.0 mg for 21 days): −11.20 mmHg
- Minimum Value for Post-dose Diastolic BP, Change from Baseline, Median ([5]; 2.0 mg for 21 days): −9.00 mmHg
- Minimum Value for Post-dose Diastolic BP, Change from Baseline, Min, Max ([5]; 2.0 mg for 21 days): −21.00 to −4.00 mmHg
- Minimum Value for Post-dose Diastolic BP, On Treatment Mean ([5]; 2.0 mg for 21 days): 45.30 mmHg
- Minimum Value for Post-dose Systolic BP, Change from Baseline, Mean [6, 8]: −13.00 mmHg
- Minimum Value for Post-dose Systolic BP, Change from Baseline, Median [6, 8]: −13.00 mmHg
- Minimum Value for Post-dose Systolic BP, Change from Baseline, Min, Max [6, 8]: −28.00 to 0.00 mmHg
- Minimum Value for Post-dose Systolic BP, On Treatment Mean [6, 8]: 94.30 mmHg
- Minimum Value for Post-dose Systolic BP, Change from Baseline, Mean [6, 9]: −7.80 mmHg
- Minimum Value for Post-dose Systolic BP, Change from Baseline, Median [6, 9]: −5.00 mmHg
- Minimum Value for Post-dose Systolic BP, Change from Baseline, Min, Max [6, 9]: −18.00 to 5.00 mmHg
- Minimum Value for Post-dose Systolic BP, On Treatment Mean [6, 9]: 93.20 mmHg
- Minimum Value for Post-dose Systolic BP, Change from Baseline, Mean ([6]; 0.7 mg for 21 days): −9.70 mmHg
- Minimum Value for Post-dose Systolic BP, Change from Baseline, Median ([6]; 0.7 mg for 21 days): −9.50 mmHg
- Minimum Value for Post-dose Systolic BP, Change from Baseline, Min, Max ([6]; 0.7 mg for 21 days): −16.00 to −1.00 mmHg
- Minimum Value for Post-dose Systolic BP, On Treatment Mean ([6]; 0.7 mg for 21 days): 96.10 mmHg
- Minimum Value for Post-dose Systolic BP, Change from Baseline, Mean ([6]; 1.35 mg for 21 days): −8.90 mmHg
- Minimum Value for Post-dose Systolic BP, Change from Baseline, Median ([6]; 1.35 mg for 21 days): −8.00 mmHg
- Minimum Value for Post-dose Systolic BP, Change from Baseline, Min, Max ([6]; 1.35 mg for 21 days): −22.00 to 3.00 mmHg
- Minimum Value for Post-dose Systolic BP, On Treatment Mean ([6]; 1.35 mg for 21 days): 100.10 mmHg
- Minimum Value for Post-dose Systolic BP, Change from Baseline, Mean ([6]; 2.0 mg for 21 days): −9.80 mmHg
- Minimum Value for Post-dose Systolic BP, Change from Baseline, Median ([6]; 2.0 mg for 21 days): −9.00 mmHg
- Minimum Value for Post-dose Systolic BP, Change from Baseline, Min, Max ([6]; 2.0 mg for 21 days): −18.00 to −4.00 mmHg
- Minimum Value for Post-dose Systolic BP, On Treatment Mean ([6]; 2.0 mg for 21 days): 90.80 mmHg
- Lymphocytes, On Treatment Mean [7, 8]: 0.62 10^3/μl
- Lymphocytes, Percent Change from Baseline, Mean [7, 8]: −67.34%
- Lymphocytes, Percent Change from Baseline, Median [7, 8]: −67.54%
- Lymphocytes, Percent Change from Baseline, Min, Max [7, 8]: −77.27 to −57.14%
- Lymphocytes, On Treatment Mean [7, 9]: 0.62 10^3/μl
- Lymphocytes, Percent Change from Baseline, Mean [7, 9]: −66.16%
- Lymphocytes, Percent Change from Baseline, Median [7, 9]: −65.02%
- Lymphocytes, Percent Change from Baseline, Min, Max [7, 9]: −85.19 to −53.85%
- Lymphocytes, On Treatment Mean ([7]; 0.7 mg for 21 days): 1.06 10^3/μl
- Lymphocytes, Percent Change from Baseline, Mean ([7]; 0.7 mg for 21 days): −41.03%
- Lymphocytes, Percent Change from Baseline, Median ([7]; 0.7 mg for 21 days): −40.37%
- Lymphocytes, Percent Change from Baseline, Min, Max ([7]; 0.7 mg for 21 days): −55.56 to −23.08%
- Lymphocytes, On Treatment Mean ([7]; 1.35 mg for 21 days): 0.89 10^3/μl
- Lymphocytes, Percent Change from Baseline, Mean ([7]; 1.35 mg for 21 days): −53.43%
- Lymphocytes, Percent Change from Baseline, Median ([7]; 1.35 mg for 21 days): −51.85%
- Lymphocytes, Percent Change from Baseline, Min, Max ([7]; 1.35 mg for 21 days): −68.75 to −30.77%
- Lymphocytes, On Treatment Mean ([7]; 2.0 mg for 21 days): 0.62 10^3/μl
- Lymphocytes, Percent Change from Baseline, Mean ([7]; 2.0 mg for 21 days): −68.81%
- Lymphocytes, Percent Change from Baseline, Median ([7]; 2.0 mg for 21 days): −69.44%
- Lymphocytes, Percent Change from Baseline, Min, Max ([7]; 2.0 mg for 21 days): −80.00 to −55.56%
- Lymphocyte lowering, dose dependence ([7]; multiple dose, 0.7 to 3.0 mg): dose-dependent effect on lymphocyte lowering with maximal effect at 2 mg dose
